In ChEMBL document CHEMBL4334495, “Design and Biological Evaluation of m-Xylene Thioether-Stapled Short Helical Peptides Targeting the HIV-1 gp41 Hexameric Coiled-Coil Fusion Complex” (J Med Chem, 2019):
Activity calls are given as the source filed them. The calls are words filed in the database; no cut-off is given here. Starred links: 1 amine or outer side, 2 acyl side, 3 side chain; linkers in the order of their positions; H or OH if unused. Positions of bridges follow the written chain, without caps; N, C: chain ends. Non-standard residues stand in square brackets, D forms with d. Residues, ends and D or L forms follow the SMILES beside them. ξ: configuration not given here. mXylylene = c1cc(C[*:1])cc(C[*:2])c1; ξhCys = NC(CCS)C(=O)O

Key:
[1] = test system: Human immunodeficiency virus 1; assay: (§1) Ratio of EC50 for antiviral activity against X4 tropic HIV-1 subtype-B 3B infected in human MT2 cells or CEMx174 5.25 M7 cells in absence of HP23 to EC50 for antiviral activity against X4 tropic HIV-1 subtype-B 3B infected in human MT2 cells or CEMx174 5.25 M7 cells at 6:1 compound to HP23 ratio; format: functional, HIV-1 group M
[2] = biological target: Envelope glycoprotein gp160 (Human immunodeficiency virus 1) (UniProt Q6QLK5); assay: Binding affinity to HIV1 GP41 using GP41 NHR derived N36 peptide assessed as formation of oligomeric complex at 100 uM incubated for 30 mins by Coomassie blue R250 staining based Native-PAGE analysis
Envelope glycoprotein gp160 (Human immunodeficiency virus 1), sequence (Q6QLK5 1-814): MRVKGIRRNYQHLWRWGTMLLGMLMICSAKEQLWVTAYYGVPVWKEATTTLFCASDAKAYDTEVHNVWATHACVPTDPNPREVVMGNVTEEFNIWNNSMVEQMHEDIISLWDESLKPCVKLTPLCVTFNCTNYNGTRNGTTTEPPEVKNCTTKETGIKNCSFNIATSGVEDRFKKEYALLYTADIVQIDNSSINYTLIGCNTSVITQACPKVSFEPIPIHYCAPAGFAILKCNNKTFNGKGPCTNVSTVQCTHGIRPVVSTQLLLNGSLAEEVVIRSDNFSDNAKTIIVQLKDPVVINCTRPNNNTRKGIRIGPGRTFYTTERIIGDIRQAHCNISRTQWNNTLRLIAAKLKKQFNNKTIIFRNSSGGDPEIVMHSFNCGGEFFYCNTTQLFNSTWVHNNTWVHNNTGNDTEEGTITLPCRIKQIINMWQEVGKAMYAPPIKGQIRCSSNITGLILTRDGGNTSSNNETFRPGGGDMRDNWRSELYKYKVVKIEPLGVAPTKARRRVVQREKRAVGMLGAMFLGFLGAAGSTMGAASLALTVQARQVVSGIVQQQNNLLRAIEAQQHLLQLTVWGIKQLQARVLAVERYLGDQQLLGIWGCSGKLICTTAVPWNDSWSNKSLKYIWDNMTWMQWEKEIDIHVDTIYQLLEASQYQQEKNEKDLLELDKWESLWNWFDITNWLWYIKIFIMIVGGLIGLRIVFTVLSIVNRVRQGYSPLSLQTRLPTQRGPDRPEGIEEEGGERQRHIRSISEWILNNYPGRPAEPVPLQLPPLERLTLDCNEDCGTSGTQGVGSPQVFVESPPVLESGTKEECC

[3] = test system: Human immunodeficiency virus 1; assay: Antiviral activity against T20 resistant HIV1 NL4-3 harboring with V38E/N42T mutant infected in human MT2 cells or CEMx174 5.25 M7 cells assessed as reduction in p24 Gag protein production at 600:1 compound to HP23 ratio measured at 4 days post-infection by ELISA; format: functional, organism-based
[4] = test system: Human immunodeficiency virus 1; assay: as §1, with “T20 resistant HIV1 NL4-3 harboring with V38E/N42S mutant” for “X4 tropic HIV-1 subtype-B 3B”, “7000:1” for “6:1”; format: functional
[5] = test system: Human immunodeficiency virus 1; assay: as §1, with “T2635 resistant HIV1 LAI harboring Q66R mutant” for “X4 tropic HIV-1 subtype-B 3B”, “to” for “to EC50 for”, “12.5:1 ratio of” for “6:1”, “HP23” for “HP23 ratio”; format: functional, M:B_Lai
[6] = test system: Human immunodeficiency virus 1; assay: Synergistic antiviral activity against X4 tropic HIV-1 subtype-B 3B infected in human MT2 cells or CEMx174 5.25 M7 cells assessed as reduction in p24 Gag protein production by measuring combination index at 12:1 compound to HP23 ratio measured at 4 days post-infection by ELISA; format: functional, HIV-1 group M
[7] = test system: Human immunodeficiency virus 1; assay: as §1, with “T2635 resistant HIV1 LAI harboring Q66R mutant” for “X4 tropic HIV-1 subtype-B 3B”, “to” for “to EC50 for”, “50:1 ratio of” for “6:1”, “HP23” for “HP23 ratio”; format: functional, M:B_Lai
[8] = test system: Human immunodeficiency virus 1; assay: Antiviral activity against R5 tropic HIV-1 subtype-B Bal infected in human MT2 cells or CEMx174 5.25 M7 cells assessed as reduction in p24 Gag protein production at 12:1 ratio of compound to HP23 measured at 4 days post-infection by ELISA; format: functional, cell-based, HIV-1 group M; details: Human immunodeficiency virus 1, Bal, 96 h
[9] = test system: Human immunodeficiency virus 1; assay: (§2) Ratio of EC50 for antiviral activity against T20 resistant HIV1 NL4-3 harboring with V38E/N42T mutant infected in human MT2 cells or CEMx174 5.25 M7 cells in absence of HP23 to EC50 for Antiviral activity against T20 resistant HIV1 NL4-3 harboring with V38E/N42T mutant infected in human MT2 cells or CEMx174 5.25 M7 cells at 150:1 compound to HP23 ratio; format: functional
[10] = biological target: Envelope glycoprotein gp160 (Human immunodeficiency virus 1) (UniProt Q6QLK5); assay: Synergistic inhibition of HIV1 gp41-induced cell-cell fusion between viral envelope expressing human HL2/3 cells to CD4/CCR5 receptor expressing TZM-bl cells assessed as combination index at 4:1 compound to HP23 ratio incubated for 6 hrs by luciferase reporter gene assay
[11] = test system: Human immunodeficiency virus 1; assay: Synergistic antiviral activity against HIV1 NL4-3 infected in human MT2 cells or CEMx174 5.25 M7 cells assessed as reduction in p24 Gag protein production by measuring combination index at 5:1 compound to HP23 ratio measured at 4 days post-infection by ELISA; format: functional
[12] = test system: Human immunodeficiency virus 1; assay: Antiviral activity against X4 tropic HIV-1 subtype-B 3B infected in human MT2 cells or CEMx174 5.25 M7 cells assessed as reduction in p24 Gag protein production at 6:1 compound to HP23 ratio measured at 4 days post-infection by ELISA; format: functional, cell-based, HIV-1 group M; details: Human immunodeficiency virus 1, 3B, 96 h
[13] = biological target: Envelope glycoprotein gp160 (Human immunodeficiency virus 1) (UniProt Q6QLK5); assay: Binding affinity to HIV1 GP41 using GP41 NHR derived N36 peptide assessed as molecular weight at 150 uM incubated for 30 mins by sedimentation Velocity analysis
[14] = biological target: Envelope glycoprotein gp160 (Human immunodeficiency virus 1) (UniProt Q6QLK5); assay: Synergistic inhibition of HIV1 gp41-induced cell-cell fusion between viral envelope expressing human HL2/3 cells to CD4/CCR5 receptor expressing TZM-bl cells assessed as combination index at 2:1 compound to HP23 ratio incubated for 6 hrs by luciferase reporter gene assay
[15] = test system: Human immunodeficiency virus 1; assay: as §2, with “hCS6ERE” for “HP23”, “600:1 hCS6ERE to” for “150:1”, “compound” for “compound to HP23”; format: functional
[16] = test system: Human immunodeficiency virus 1; assay: as §1, with “hCS6ERE” for “HP23”, “6:1 ratio of hCS6ERE to” for “6:1”, “compound” for “compound to HP23 ratio”; format: functional, HIV-1 group M
[17] = test system: Human immunodeficiency virus 1; assay: Antiviral activity against X4 tropic HIV-1 subtype-B 3B infected in human MT2 cells or CEMx174 5.25 M7 cells assessed as reduction in p24 Gag protein production at 24:1 ratio of hCS6ERE to compound measured at 4 days post-infection by ELISA; format: functional, cell-based, HIV-1 group M; details: Human immunodeficiency virus 1, 3B, 96 h
[18] = test system: Human immunodeficiency virus 1; assay: Antiviral activity against T20 resistant HIV1 NL4-3 harboring with V38E/N42S mutant infected in human MT2 cells or CEMx174 5.25 M7 cells assessed as reduction in p24 Gag protein production at 7000:1 hCS6ERE to compound ratio measured at 4 days post-infection by ELISA; format: functional, organism-based
[19] = test system: Human immunodeficiency virus 1; assay: as §2, with “V38E/N42S” for “V38E/N42T”, “hCS6ERE” for “HP23”, “antiviral” for “Antiviral”, “7000:1 hCS6ERE to” for “150:1”, “compound” for “compound to HP23”; format: functional
[20] = biological target: Envelope glycoprotein gp160 (Human immunodeficiency virus 1) (UniProt Q6QLK5); assay: Ratio of EC50 for inhibition of HIV1 gp41-induced cell-cell fusion between viral envelope expressing human HL2/3 cells to CD4/CCR5 receptor expressing TZM-bl cells in absence of HP23 to EC50 for inhibition of HIV1 gp41-induced cell-cell fusion between viral envelope expressing human HL2/3 cells to CD4/CCR5 receptor expressing TZM-bl cells at 2:1 ratio of hCS6ERE to compound
[21] = test system: Human immunodeficiency virus 1; assay: Ratio of EC50 for antiviral activity against HIV1 NL4-3 infected in human MT2 cells or CEMx174 5.25 M7 cells in absence of hCS6ERE to EC50 for antiviral activity against HIV1 NL4-3 infected in human MT2 cells or CEMx174 5.25 M7 cells at 20:1 hCS6ERE to compound ratio; format: functional
[22] = test system: Human immunodeficiency virus 1; assay: as §2, with “V38E/N42S” for “V38E/N42T”, “hCS6ERE” for “HP23”, “antiviral” for “Antiviral”, “14000:1 hCS6ERE to” for “150:1”, “compound” for “compound to HP23”; format: functional
[23] = test system: Human immunodeficiency virus 1; assay: Antiviral activity against HIV1 NL4-3 infected in human MT2 cells or CEMx174 5.25 M7 cells assessed as reduction in p24 Gag protein production at 20:1 hCS6ERE to compound ratio measured at 4 days post-infection by ELISA; format: functional, organism-based; details: Human immunodeficiency virus 1, NL4-3, 96 h

For CC[C@H](C)[C@H](NC(C)=O)C(=O)N[C@@H](CCC(=O)O)C(=O)N[C@@H](CCC(=O)O)C(=O)N[C@@H](CC(C)C)C(=O)N[C@H](C(=O)NC1CCSCc2cccc(c2)CSCCC(C(=O)N[C@@H](CCC(N)=O)C(=O)N[C@@H](CCC(N)=O)C(=O)N[C@@H](CCCNC(=N)N)C(=O)N[C@@H](CCCCN)C(=O)N[C@@H](CC(N)=O)C(=O)N[C@@H](CCC(=O)O)C(=O)N[C@@H](CCC(=O)O)C(=O)N[C@@H](C)C(=O)N[C@@H](CC(C)C)C(=O)N[C@@H](CCCNC(=N)N)C(=O)N[C@@H](CCC(=O)O)C(=O)N[C@@H](CC(C)C)C(N)=O)NC(=O)[C@H](CCC(N)=O)NC(=O)[C@H](C)NC(=O)[C@H](C)NC1=O)[C@@H](C)CC (stereo partly drawn) (Ac-IEELI[ξhCys]AAQ[ξhCys]QQRKNEEALREL-NH2; linker 6-10 via mXylylene), the “Ratio EC50” value [1] was 3.6, the Activity [2] was “Active” and the EC50 [3] was 468 nM. For the same compound, the “Ratio EC50” value [4] was 2.7, the “Ratio EC50” value [5] was 3.8 and the CI [6] was 0.7. For the same compound, the “Ratio EC50” value [7] was 3.3, the EC50 [8] was 6 nM and the “Ratio EC50” value [9] was 3.1. The CI [10] was 0.6, the CI [11] was 0.4 and the EC50 [12] was 7.6 nM. It also gave an Activity [13] of 19.2 kDa and a CI [14] of 0.8.

With H-EMTWEEWEKKIEEYTKKIEEILK-OH the “Ratio EC50” value [15] was 5.1, the “Ratio EC50” value [16] was 1.9 and the EC50 [17] was 0.7 nM. The EC50 [18] was 0.4 nM, the “Ratio EC50” value [19] was 3.5 and the Ratio EC50 [20] was 2. For the same compound, the “Ratio EC50” value [21] was 4.9, the “Ratio EC50” value [22] was 7 and the EC50 [23] was 0.7 nM.
